Tests used:
Assay in all cases: combination Emax (second highest fraction inhibited in the dose matrix, 72 h); higher = more inhibition; extreme values may be limits of the assay
[1] = test system: MOLP-8 (Plasma Cell Myeloma)
Method in brief: (§1)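 Cell lines grown in DMEM/F12 or RPMI with 10% FBS were plated in 1536-well plates and held 24 hours at 37°C, 5% CO2 before 72 hours of exposure to two-drug dose matrices, with DMSO typically at 0.2%. CellTiter-Glo 2.0 luminescence gave viability, which was converted to inhibition. Vehicle wells were set to 0 and blank wells to 1. Combination Emax is the second-highest inhibition in the matrix, and Bliss excess is the observed combination effect minus the expected EA + EB − EA·EB, where EA and EB are the single-agent effects.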

[2] = test system: MONO-MAC-6 (Acute Myeloid Leukemia)
Method in brief: as §1

[3] = test system: SNU-C2B (Colorectal Carcinoma)
Method in brief: as §1

NCI-H226 (Mesothelioma) = test system: NCI-H226 (Mesothelioma)
Method in brief: as §1

[4] = test system: NMC-G1 (Low Grade Glioma)
Method in brief: as §1

[5] = test system: MS-1 (Small Cell Lung Carcinoma)
Method in brief: as §1

[6] = test system: SNU-407 (Colorectal Carcinoma)
Method in brief: as §1

[7] = test system: PA-TU-8988T (Pancreatic Carcinoma)
Method in brief: as §1

KALS-1 (Glioblastoma) = test system: KALS-1 (Glioblastoma)
Method in brief: as §1

[8] = test system: OAW-28 (Ovarian Carcinoma)
Method in brief: as §1

[9] = test system: Raji (Burkitt's Lymphoma)
Method in brief: as §1

[10] = test system: P32-ISH (Burkitt's Lymphoma)
Method in brief: as §1

[11] = test system: ZR-75-30 (Breast Carcinoma)
Method in brief: as §1

[12] = test system: TUR (Acute Myeloid Leukemia)
Method in brief: as §1

[13] = test system: HT-1080 (Other Solid Carcinomas)
Method in brief: as §1

[14] = test system: NCI-H1963 (Small Cell Lung Carcinoma)
Method in brief: as §1

[15] = test system: MDA-MB-415 (Breast Carcinoma)
Method in brief: as §1

SK-N-SH (Neuroblastoma) = test system: SK-N-SH (Neuroblastoma)
Method in brief: as §1

[16] = test system: BxPC-3 (Pancreatic Carcinoma)
Method in brief: as §1

[17] = test system: NCI-H3118 (Head and Neck Carcinoma)
Method in brief: as §1

| SMILES | combination Emax [1] | combination Emax [2] | combination Emax [3] | combination Emax (NCI-H226 (Mesothelioma)) | combination Emax [4] | combination Emax [5] | combination Emax [6] | combination Emax [7] | combination Emax (KALS-1 (Glioblastoma)) | combination Emax [8] | combination Emax [9] | combination Emax [10] | combination Emax [11] | combination Emax [12] | combination Emax [13] | combination Emax [14] | combination Emax [15] | combination Emax (SK-N-SH (Neuroblastoma)) | combination Emax [16] | combination Emax [17] |
| --- | --- | --- | --- | --- | --- | --- | --- | --- | --- | --- | --- | --- | --- | --- | --- | --- | --- | --- | --- | --- |
| COc1cccc(OCCCN)c1-c1cc(Nc2cnc(C#N)cn2)n[nH]1 [Prexasertib] + CN(C)CCCOc1ccc(-c2ccc3ncc4c(c3c2)n(C2CCOCC2)c(=O)n4C)cn1 [AZD0156] (first compound max 1 µM, 7x7, partner max 1 µM) | 0.894 | 0.963 | 0.622 | 0.179 | 0.362 | 0.983 | 0.653 | 0.38 | 0.839 | 0.563 | 0.959 | 1 | 0.117 | 1 | 0.563 | 0.975 | 0.321 | 0.876 | 0.66 | 0.858 |
| COc1cccc(OCCCN)c1-c1cc(Nc2cnc(C#N)cn2)n[nH]1 [Prexasertib] + C[C@@H]1COCCN1C2=NC(=NC(=C2)C3(CC3)[S@](=N)(=O)C)C4=C5C=CNC5=NC=C4 [AZD6738] (first compound max 1 µM, 7x7, partner max 10 µM) | 0.891 | 0.993 | 0.649 | 0.176 | 0.314 | 0.971 | 0.757 | 0.46 | 0.899 | 0.546 | 0.956 | 1 | 0.166 | 1 | 0.534 | 0.952 | 0.45 | 0.901 | 0.633 | 0.816 |
| COc1cccc(OCCCN)c1-c1cc(Nc2cnc(C#N)cn2)n[nH]1 [Prexasertib] + Cc1cc2ncnn2cc1Nc1ncc2c(n1)n(C1CCOCC1)c(=O)n2C [AZD7648] (first compound max 1 µM, 7x7, partner max 10 µM) | 0.897 | 0.976 | 0.706 | 0.209 | 0.327 | 0.971 | 0.597 | 0.532 | 0.866 | 0.462 | 0.97 | 1 | 0.17 | 1 | 0.557 | 0.975 | 0.413 | 0.844 | 0.68 | 0.819 |
| COc1cccc(OCCCN)c1-c1cc(Nc2cnc(C#N)cn2)n[nH]1 [Prexasertib] + O=C(c1cc(Cc2n[nH]c(=O)c3ccccc23)ccc1F)N1CCN(C(=O)C2CC2)CC1 [Olaparib] (first compound max 1 µM, 7x7, partner max 10 µM) | 0.882 | 0.976 | 0.66 | 0.275 | 0.371 | 0.896 | 0.583 | 0.288 | 0.785 | 0.48 | 0.982 | 1 | 0.202 | 1 | 0.542 | 0.908 | 0.397 | 0.834 | 0.682 | 0.837 |
| COc1cc2c(cc1OCCCCCOc1cc3c(cc1OC)C(=O)N1C=C(C)C[C@H]1C=N3)N=C[C@@H]1CC(C)=CN1C2=O [SG3199] + O=C(c1cc(Cc2n[nH]c(=O)c3ccccc23)ccc1F)N1CCN(C(=O)C2CC2)CC1 [Olaparib] (first compound max 0.001 µM, 7x7, partner max 10 µM) | 0.233 | 0.234 | 0.249 | 0.0668 | 0.183 | 0.379 | 0.182 | 0.206 | 0.163 | 0.245 | 0.43 | 0.247 | 0.308 | 0.112 | 0.12 | 0.293 | 0.0958 | 0.274 | 0.101 | 0.118 |
| CCc1c2c(nc3ccc(O)cc13)-c1cc3c(c(=O)n1C2)COC(=O)[C@]3(O)CC [SN-38] + CN(C)CCCOc1ccc(-c2ccc3ncc4c(c3c2)n(C2CCOCC2)c(=O)n4C)cn1 [AZD0156] (first compound max 0.3 µM, 7x7, partner max 1 µM) | 0.78 | 1 | 0.397 | 0.337 | 0.24 | 0.63 | 0.416 | 0.704 | 0.596 | 0.791 | 0.958 | 1 | 0.0683 | 0.982 | 0.374 | 0.822 | 0.294 | 0.909 | 0.523 | 0.402 |
| CC(=O)Nc1cccc(-n2c(=O)n(C3CC3)c(=O)c3c(Nc4ccc(I)cc4F)n(C)c(=O)c(C)c32)c1 [Trametinib] + Cc1nc(-c2cn3c(n2)-c2ccc(-c4cnn(C(C)(C)C(N)=O)c4)cc2OCC3)n(C(C)C)n1 [Taselisib] (first compound max 1 µM, 7x7, partner max 10 µM) | 1 | 1 | 0.676 | 0.327 | 0.488 | 0.513 | 0.905 | 0.762 | 0.951 | 0.589 | 0.144 | 0.508 | 0.667 | 0.992 | 0.628 | 0.435 | 0.848 | 0.827 | 1 | 0.966 |
| CC1(C)CCC(CN2CCN(c3ccc(C(=O)NS(=O)(=O)c4ccc(NCC5CCOCC5)c([N+](=O)[O-])c4)c(Oc4cnc5[nH]ccc5c4)c3)CC2)=C(c2ccc(Cl)cc2)C1 [Venetoclax] + C1CN(CCC1(C(=O)N[C@@H](CCO)C2=CC=C(C=C2)Cl)N)C3=NC=NC4=C3C=CN4 [Capivasertib] (first compound max 1 µM, 7x7, partner max 3 µM) | 0.385 | 0.704 | 0.25 | 0.241 | 0.111 | 0.36 | 0.388 | 0.219 | 0.714 | 0.134 | 0.132 | 0.306 | 0.312 | 0.599 | 0.127 | 0.775 | 0.663 | 0.394 | 0.297 | 0.169 |
| CC1(C)CCC(CN2CCN(c3ccc(C(=O)NS(=O)(=O)c4ccc(NCC5CCOCC5)c([N+](=O)[O-])c4)c(Oc4cnc5[nH]ccc5c4)c3)CC2)=C(c2ccc(Cl)cc2)C1 [Venetoclax] + C=CCn1c(=O)c2cnc(Nc3ccc(N4CCN(C)CC4)cc3)nc2n1-c1cccc(C(C)(C)O)n1 [AZD1775] (first compound max 1 µM, partner max 1 µM) | 0.75 | 0.992 | 0.609 | 0.268 | 0.394 | 0.939 | 0.558 | 0.728 | 0.93 | 0.233 | 0.725 | 1 | 0.159 | 0.911 | 0.349 | 0.973 | 0.206 | 0.889 | 0.727 | 0.836 |
| CC1(C)CCC(CN2CCN(c3ccc(C(=O)NS(=O)(=O)c4ccc(NCC5CCOCC5)c([N+](=O)[O-])c4)c(Oc4cnc5[nH]ccc5c4)c3)CC2)=C(c2ccc(Cl)cc2)C1 [Venetoclax] + CCN(CCO)CCCOc1ccc2c(Nc3cc(CC(=O)Nc4cccc(F)c4)[nH]n3)ncnc2c1 [AZD2811] (first compound max 1 µM, 7x7, partner max 1 µM) | 0.406 | 0.981 | 0.185 | 0.158 | 0.229 | 0.34 | 0.485 | 0.0634 | 0.661 | 0.314 | 0.122 | 0.912 | 0.11 | 0.258 | 0.27 | 0.893 | 0.231 | 0.73 | 0.365 | 0.207 |
| CC1(C)CCC(CN2CCN(c3ccc(C(=O)NS(=O)(=O)c4ccc(NCC5CCOCC5)c([N+](=O)[O-])c4)c(Oc4cnc5[nH]ccc5c4)c3)CC2)=C(c2ccc(Cl)cc2)C1 [Venetoclax] + CN(C)CCCOc1ccc(-c2ccc3ncc4c(c3c2)n(C2CCOCC2)c(=O)n4C)cn1 [AZD0156] (first compound max 1 µM, 7x7, partner max 1 µM) | 0.169 | 0.619 | 0.156 | 0.212 | 0.192 | 0.445 | 0.234 | 0.179 | 0.646 | 0.116 | 0.244 | 0.0131 | 0.105 | 0.0455 | 0.105 | 0.565 | 0.262 | 0.394 | 0.276 | 0.181 |
| CC1(C)CCC(CN2CCN(c3ccc(C(=O)NS(=O)(=O)c4ccc(NCC5CCOCC5)c([N+](=O)[O-])c4)c(Oc4cnc5[nH]ccc5c4)c3)CC2)=C(c2ccc(Cl)cc2)C1 [Venetoclax] + COc1cc(Nc2ncc3c(n2)-c2ccc(Cl)cc2C(c2c(F)cccc2OC)=NC3)ccc1C(=O)O [Alisertib] (first compound max 1 µM, 7x7, partner max 10 µM) | 0.633 | 0.964 | 0.291 | 0.224 | 0.244 | 0.392 | 0.631 | 0.403 | 0.647 | 0.476 | 0.252 | 1 | 0.137 | 0.628 | 0.299 | 0.949 | 0.379 | 0.902 | 0.226 | 0.312 |
